The values that follow come from PubChem BioAssay AID489033 (Sanford-Burnham Center for Chemical Genomics, 2010).

Calls of active or inactive are those of the source. The rule behind the calls is not given here. Where only a bound is given, the exact number is not on record here.

The IC50 is the concentration that inhibits the measured activity by half.

For this test, the system named is 697B B-cell line, NF-kB luciferase reporter luminescence. The test can be described thus: NF-kB reporter inhibition in B cells, dose response, selectivity assay for T-cell antigen receptor NF-kB inhibitors, 697B cells, luminescence (AID 489033).
On to `CC(Nc1ncnc2ccccc12)c1ccccc1` (configuration not stated), for which the IC50 was > 80 µM (inactive). Next, `CCOc1ccccc1NC(=O)Cn1nnc(C(=O)NCc2cccs2)c1N`: > 80 µM (inactive); `CC(=O)N(C)C1=C(N2CCOCC2)C(=O)c2ccccc2C1=O`: 17.9 µM; `CCOc1ccccc1C1CC(=O)Nc2cc3c(cc21)OCCO3` (configuration not stated): > 80 µM (inactive). Next, `Cc1ccc(S(=O)(=O)Nc2ccccc2-c2ccccc2)cc1`: > 80 µM (inactive); `CCCCOc1ccc(Br)cc1/C(C)=N/NC1=NCCN1`: 28.6 µM (inactive); `CCCCCCCCCn1c2c(c(=N)c3c1CCC3)CCC2`: 10.7 µM. Next, `CC(C)c1ccc(/C=N/Nc2ccc(C(=O)O)cc2)cc1`: 10.7 µM. Regarding `O=C(N/N=C\c1c(O)ccc2ccccc12)c1ccc(S(=O)(=O)N2CCCCC2)cc1`, the IC50 was > 80 µM (inactive). Next, `Cc1c(C)c2cccnc2c2ncccc12`: 6.81 µM; `Cc1cc(=O)oc2cc(OCC3CC(c4ccccc4Cl)=NO3)ccc12` (configuration not stated): > 80 µM (inactive); `CCN(c1ccccc1)S(=O)(=O)c1ccc(C(=O)NC2CCN(Cc3ccccc3)CC2)cc1`: > 80 µM (inactive). Next, `Cc1cccc(N(C)S(=O)(=O)c2ccc(-c3cnc(C4CC4)o3)cc2)c1`: > 80 µM (inactive); `COc1ccc(C(NC(=O)C(C)C)c2ccc3cccnc3c2O)cc1` (configuration not stated): > 80 µM (inactive). In the case of `CCOc1ccccc1C1CC(=O)Nc2cc3c(cc21)OCO3` (configuration not stated), the IC50 was > 80 µM (inactive). Next, `Cc1cc(-c2ccc(C(C)C)c(S(=O)(=O)N3CCN(c4ccccc4)CC3)c2)on1`: > 80 µM (inactive); `Cc1cccc(N=Nc2ccc(O)c3ncccc23)c1`: 1.1 µM. Consider `C[C@]12CC[C@H]3[C@@H](CC[C@]4(O)C[C@@H](O)CC[C@]34C=O)[C@@]1(O)CC[C@@H]2C1=CC(=O)OC1`, for which the IC50 was 1.13 µM.

As to `CN[C@H]1CCc2cc(OC)c(OC)c(OC)c2-c2ccc(OC)c(=O)cc21`, the IC50 is > 80 µM (inactive).

As for `O=C(Nc1cccc(C(F)(F)F)c1)c1sc(Cl)nc1C(F)(F)F`, the half-maximal inhibitory concentration (IC50) was 1.37 µM. Next, `Cc1cccc(N2CCN(C(=O)c3ccc4[nH]c(C)c(C)c4c3)CC2)c1C`: > 80 µM (inactive); `CCOc1ccc(N/C(N)=N/c2nc(CSc3nnc(C)s3)cc(=O)[nH]2)cc1`: > 80 µM (inactive); `COc1cc(C2c3cc4c(cc3CC3COC(=O)C32)OCO4)cc(OC)c1OC` (configuration not stated): > 80 µM (inactive). Consider `CN(C)S(=O)(=O)c1ccc(Nc2nc(C3CC3)nc3c2nnn3Cc2ccccc2Cl)cc1`, for which the IC50 is > 80 µM (inactive). As to `Cn1c2c(c(=O)n(C)c1=O)C(C(F)(F)F)(C(F)(F)F)N=C(c1ccc(Cl)cc1)N2`, the IC50 is 1.93 µM. Next, `COc1cc(C(=O)OCCc2cc3ccccc3c(=O)o2)cc(OC)c1OC`: > 80 µM (inactive). Next, `O=C(Nc1cccc2ccccc12)OC1C=CS(=O)(=O)C1` (configuration not stated): 10.7 µM; `CCCCCCCCCn1c2c(c(=N)c3c1CCC3)CCCC2`: 0.33 µM.

Regarding `CCOC(=O)c1ccccc1NS(=O)(=O)c1ccc(OCC)cc1`, the IC50 is > 80 µM (inactive). Next, `Cc1sc2ncnc(NC3CCN(Cc4ccccc4)CC3)c2c1C`: 2.51 µM; `CSc1nccc(-c2nn(-c3ccc(C)cc3)ccc2=O)n1`: > 80 µM (inactive). Next, `CCCC1=Nc2cc(C(=O)NCCCOCC)ccc2Sc2ccccc21`: > 80 µM (inactive); `COc1ccccc1N1CCN(C(=O)c2ccc(-c3ccc(Cl)cc3)o2)CC1`: 66.5 µM (inactive). As to `Cc1ccc(C(=O)Nc2ncc(Cc3ccc(SC(F)F)cc3)s2)cc1`, the IC50 was > 80 µM (inactive). Next, `CSC1=NC(C(Cl)(Cl)Cl)N=C(c2ccc(C)cc2)N1` (configuration not stated): > 80 µM (inactive); `CCCSc1nnc(Sc2nnnn2-c2ccccc2)s1`: 7 µM. For `CC(C)(C)OC(=O)NCCCCCc1cn(CC(=O)NCCCCCCCCCCC(=O)N2CCN(C(=O)OC(C)(C)C)CC2)nn1`, the IC50 is > 80 µM (inactive).

On to `CCOC(=O)/C=C/S(=O)(=O)c1ccc(NC(C)=O)cc1`, for which the IC50 is 0.39 µM. Next, `Cc1cc(NC(=O)CSc2nc3c(sc4ccccc43)c(=O)n2CCCN2CCOCC2)n[nH]1`: > 80 µM (inactive). Turning to `COCCCNC(=O)C(=O)Nc1ccc2c(c1)N(S(=O)(=O)c1cccs1)CCC2`, the IC50 was > 80 µM (inactive). As to `O=C(Nc1ccc(S(=O)(=O)N2CCN(Cc3ccccc3)CC2)cc1)c1cnccn1`, the IC50 is > 80 µM (inactive). Next, `COc1ccc(/C=N\NC(=O)c2ccccc2F)cc1COc1ccc(F)cc1F`: > 80 µM (inactive). Next, `CN(Cc1ccccc1)C1=CC(=[N+]2CCCCC2)CC(C)(C)C1`: > 80 µM (inactive). Next, `CCCC(=O)NC(c1ccc(N(C)C)cc1)c1ccc2cccnc2c1O` (configuration not stated): > 80 µM (inactive); `O=S(=O)(Nc1cccc2ncccc12)c1cccs1`: 0.34 µM. Take `CCN1C/C(=C/c2ccc(OC)c(O)c2)C(=O)/C(=C/c2ccc(OC)c(O)c2)C1`: the IC50 was 25.2 µM (inactive). As for `CCc1c(C)nc2ncnn2c1NCCc1ccc(OC)cc1`, the IC50 was > 80 µM (inactive). Next, `CCN(CC)c1ccc(NC(=O)c2cc(OC)cc(OC)c2)c(C)c1`: > 80 µM (inactive); `C[C@@H]1O[C@@H](O[C@H]2C[C@@H](O)[C@]3(CO)[C@H]4[C@H](O)C[C@]5(C)[C@@H](C6COC(=O)C6)CC[C@]5(O)[C@@H]4CC[C@]3(O)C2)[C@H](O)[C@H](O)[C@H]1O` (some centres not stated): 3.72 µM; `N#Cc1ccc(-c2cccs2)nc1SCc1cccnc1`: > 80 µM (inactive). Next, `CCCCC(=O)NC(c1ccc(N(CC)CC)cc1)c1ccc2cccnc2c1O` (configuration not stated): > 80 µM (inactive); `CCCC(=O)NC(c1ccccc1Cl)c1ccc2cccnc2c1O` (configuration not stated): > 80 µM (inactive); `O=C(N/N=C/c1c(O)ccc2ccccc12)c1cccc(C(F)(F)F)c1`: 18.6 µM.

Regarding `COc1cc(C2C(C#N)=C(N)Oc3cc4c(cc32)OCO4)cc(OC)c1OC` (configuration not stated), the IC50 was > 80 µM (inactive).

As to `CC(C)(C)c1ccc(C(=O)Nc2ccc(Oc3cccnc3)nc2)cc1`, the IC50 is 3.28 µM. Next, `COc1cc(C(=O)Nc2ccc3c(c2)CCN3C(C)=O)cc(OC)c1OC`: > 80 µM (inactive); `Cc1ccc2cccc(NS(=O)(=O)c3ccccc3)c2n1`: 0.94 µM; `CCCCCn1c2c(c(=N)c3ccccc31)CCC2`: 50.3 µM (inactive). With `COc1ccc(CC(=O)Nc2nc(-c3ccc(F)c(F)c3)cs2)cc1OC`, the IC50 was 57.5 µM (inactive).

Regarding `CC(=O)c1sc2c(c1OC(=O)c1ccc(Cl)cc1Cl)c(=O)n(-c1ccccc1)c(=S)n2-c1ccccc1`, the half-inhibitory concentration (IC50) was 1.93 µM. Next, `CC(Oc1ccc(Cl)cc1Cl)C(=O)Nc1ccncc1` (configuration not stated): > 80 µM (inactive); `c1ccc(-c2noc(-c3ccc4c(c3)OCO4)n2)nc1`: 1.27 µM. Next, `CC(C)(C)C(=O)Nc1ccc(NC(=O)c2ccco2)nc1`: 1.47 µM. Next, `COc1ccccc1CNS(=O)(=O)c1ccc(-c2cnc(C3CC3)o2)cc1`: > 80 µM (inactive); `CC(C)CC[n+]1ccccc1/C=C/c1ccc(N(C)C)cc1`: > 80 µM (inactive); `Cc1ccc(-c2cc(C(F)F)n3ncc(C(=O)N4CCc5ccccc54)c3n2)cc1`: > 80 µM (inactive). In the case of `O=C(Sc1cccc2cccnc12)c1ccc(F)cc1`, the concentration for half-maximal inhibition (IC50) was 1.03 µM. Next, `COc1cc2c(c(OC)c1OC)-c1ccc(OC)c(=O)cc1[C@@H](N(C)CC#CCO)CC2`: > 80 µM (inactive).

`CCOC(=O)CSC1=C(C#N)C(c2ccc(C)s2)CC(=O)N1` (configuration not stated): the IC50 was > 80 µM (inactive). Next, `Cc1cccc(N2CCN(C(=O)c3c(-c4ccccc4)noc3C)CC2)c1C`: > 80 µM (inactive); `CC(=O)O[C@H]1C(=O)[C@@]2(C)C([C@H](OC(=O)c3ccccc3)[C@]3(O)C[C@H](OC(=O)[C@H](O)[C@@H](NC(=O)c4ccccc4)c4ccccc4)C(C)=C1C3(C)C)[C@]1(OC(C)=O)CO[C@@H]1C[C@H]2O` (some centres not stated): > 80 µM (inactive). Next, `COc1cccc(N/C(N)=N/c2nc(CSc3ccccn3)cc(=O)[nH]2)c1`: > 80 µM (inactive); `C=CCn1c(C)cc(C2=NNC(=NCC)SC2)c1C`: below 0.16 µM. Next, `COc1ccc(C[C@H](N)C(=O)N[C@H]2[C@@H](O)[C@H](n3cnc4c(N(C)C)ncnc43)O[C@@H]2CO)cc1`: 1.62 µM; `CCOc1cc(C#N)c(NC(=O)c2cccnc2)cc1OCC`: > 80 µM (inactive); `COc1ccc(/C=N/Nc2cc(C)nc3ccc(OC)cc23)c(OC)c1`: 5.2 µM. Regarding `CCCCCOC(=O)c1[nH]c2c(c1C)C(=O)CC(c1ccco1)C2` (configuration not stated), the IC50 was > 80 µM (inactive). Next, `Cc1ccc(NS(=O)(=O)c2ccc(C(=O)NC3CCN(Cc4ccccc4)CC3)cc2)cc1`: 45.5 µM (inactive).

In the case of `CC(=O)c1c(C)[nH]c(C(=O)OCC(=O)Nc2ccc(C)cc2[N+](=O)[O-])c1C`, the concentration for half-maximal inhibition (IC50) is 11.3 µM.

Consider `COc1ccc2c(c1)C(=O)N1[C@H]3c4cc(Br)ccc4OC[C@@H]3[C@H](c3ccccc3)[C@]1(C)C(=O)N2`, for which the IC50 was > 80 µM (inactive). Next, `COc1ccc(CS(=O)(=O)/C(Cl)=C(/Cl)C(=O)Nc2ccc(OC)nc2)cc1`: 3.32 µM; `CCc1ccc(S(=O)(=O)/N=C2\C=C(Nc3ccc(O)cc3)C(=O)c3ccccc32)cc1`: 5.19 µM; `O=C(NNc1ccnc2cc(Cl)ccc12)C1CCCCC1`: > 80 µM (inactive).

Turning to `CC1Cc2cc(-c3csc(NC(=O)Cc4cccs4)n3)ccc2N1S(C)(=O)=O` (configuration not stated), the IC50 is 13.9 µM. Next, `COc1ccc(CS(=O)/C(Cl)=C(/Cl)C(=O)Nc2ccc(OC)nc2)cc1` (configuration not stated): 1.57 µM; `COc1ccc(Br)cc1/C(C)=N/NC1=NCCN1`: > 80 µM (inactive); `CC(C)c1oc(=O)cc2c1[C@@H](O)[C@H]1OC(=O)[C@@]3(C)CC[C@@H](O)[C@@]2(C)C13` (some centres not stated): 14 µM.
